Laboratory results from patent US5395947A, “Platinum(II) complex and processes for preparing the same” (Sunkyong Industries, Ltd., priority 1991, dated 1995).

Key:
[1] = tested on: murine leukemia L1210 cells; experiment: Growth inhibition test on cultured murine leukemia L1210 cells; format: cell-based; settings: 48 hours, 37° C., Trypan blue viability
Protocol: 1. Growth inhibition test on cultured murine leukemia L1210 cells
Murine leukemia L1210 cells(1×10^5) were treated with various concentrations of the compounds prepared in the above examples in RPMI 1640 medium supplemented with 10% fetal calf serum, and cultured in a 5% CO2 humidified incubator at 37° C. for 48 hours. Their viability, estimated by staining with 0.17% Trypan blue, was compared with that of control cells cultured in the identical medium without the compounds.

murine leukemia L1210 = experiment: Antitumor activity test on murine leukemia L1210 in vivo; design: species or system male BDF1 mice; settings: days 1, 5, 9
Protocol: 2. Antitumor activity test on murine leukemia L1210 in vivo
Murine leukemia L1210 cells were maintained in the peritoneal cavities of 6-week-old male DBA/2 mice by weekly transfer in accordance with the procedure described in cancer chemotherapy Reports, Part 3, 3(2), 7 (1972). Specifically, 1×10^6 leukemia cells were inoculated into the abdominal cavities of 6-week-old male BDF1 mice weighing 21±3 g on day 0. Each treatment group consisted of seven mice. The test compounds were dissolved or suspended in 0.5% carboxymethyl cellulose(CMC)solution (in water) and were administered intraperitoneally on days 1, 5, and 9 relative to the tumor inoculation.
Thirty mice of 6-week-old male BDF1 weighing 21±3 g were used as the control group, which were injected with 0.5% CMC solution only in the same manner as above.
Anti-tumor activities of the compounds were evaluated in terms of the T/C % values calculated from the mean survival time(T) of the compound-treated group over that(C) of the control group. [formula]

[2] = Test for water solubility; format: physicochemical
From the text: 3. Test for water solubility
A standard plot of UV absorbance(220 nm) vs. concentration was made; and employed to determine water-solubility.
The mixture was then passed through a 0.45 micron disposable membrane filter before dilution and UV measurement.

Structure (SMILES) | IC50 (concentration required for 50% inhibition of growth) [1] [µg/mL] | T/C (%) (murine leukemia L1210; 6.2 mg/kg i.p.) | T/C (%) (murine leukemia L1210; 12.5 mg/kg i.p.) | T/C (%) (murine leukemia L1210; 25 mg/kg i.p.) | T/C (%) (murine leukemia L1210; 50 mg/kg i.p.) | T/C (%) (murine leukemia L1210; 100 mg/kg i.p.) | Solubility in water ([2]; water) [mg/mL] | Solubility in water ([2]; 20° C.) [mg/mL] | T/C (%) (murine leukemia L1210; 3.1 mg/kg i.p.)
CC(C)C1OC2C[NH2+][Pt-2]3([NH2+]CC2O1)[O]C(=O)C1(CCC1)C(=O)[O]3 [Example 28, cis-cyclobutane-1,1-dicarboxylato[(4R,5R)-4,5-bis(aminomethyl)-2-isopropyl-1,3-dioxolane]platinum(II)] | 1.14 | 113 | 106 | 126% | 133% | 130% | 2.1 | – | –
CCC1OC2C[NH2+][Pt-2]3([NH2+]CC2O1)[O]C(=O)C1(CCC1)C(=O)[O]3 [Example 25, cis-cyclobutane-1,1-dicarboxylato[(4S,5S)-4,5-bis(aminomethyl)-2-ethyl-1,3-dioxolane]platinum(II)] | 1.02 | – | – | – | – | – | – | 11.8 | –
O=C1[O][Pt-2]2([NH2+]CC3OC4(CCCC4)OC3C[NH2+]2)[O]C(=O)C12CCC2 [Example 31, cis-cyclobutane-1,1-dicarboxylato[(4S,5S)-4,5-bis(aminomethyl)-1,3-dioxolane-2-spiro-1'-cyclopentane]platinum(II)] | 1.75 | 102 | 109 | 94% | 106% | 117% | 1.9 | – | –
CC(C)(C)C1OC2C[NH2+][Pt-2]3([NH2+]CC2O1)[O]CC(=O)[O]3 [Example 12, (glycolato-O,O')[(4R,5R)-4,5-bis(aminomethyl)-2-tert-butyl-1,3-dioxolane]platinum(II)] | 0.10 | 136 | 154 | 167% | toxic | – | 2.1 | – | 104
CC(C)C1OC2C[NH2+][Pt-2]3([NH2+]CC2O1)[O]C(=O)C1(CCC1)C(=O)[O]3 [Example 29, cis-cyclobutane-1,1-dicarboxylato[(4S,5S)-4,5-bis(aminomethyl)-2-isopropyl-1,3-dioxolane]platinum(II)] | 2.12 | – | – | – | – | – | – | 2.0 | –
CC(C)CC1OC2C[NH2+][Pt-2]3([NH2+]CC2O1)[O]CC(=O)[O]3 [Example 11, (glycolato-O,O')[(4R,5R)-4,5-bis(aminomethyl)-2-isobutyl-1,3-dioxolane]platinum(II)] | 0.10 | 146 | 191 | toxic | toxic | – | 4.6 | – | 102
N.N.O=C([O-])C1(C(=O)[O-])CCC1.[Pt+2] [carboplatin, reference compound] | 1.98 | 107 | 125 | 148% | 196% | 197% | 10.0 | – | –
CC1(C)OC2C[NH2+][Pt-2]3([NH2+]CC2O1)[O]C(=O)C1(CCC1)C(=O)[O]3 [Example 27, cis-cyclobutane-1,1-dicarboxylato[(4S,5S)-4,5-bis(aminomethyl)-2,2-dimethyl-1,3-dioxolane]platinum(II)] | 2.36 | 112 | 106 | 124% | 148% | 142% | 1.9 | – | –
O=C1[O][Pt-2]2([NH2+]CC3OC4(CCCCC4)OC3C[NH2+]2)[O]C(=O)C12CCC2 [Example 32, cis-cyclobutane-1,1-dicarboxylato[(4R,5R)-4,5-bis(aminomethyl)-1,3-dioxolane-2-spiro-1'-cyclohexane]platinum(II)] | 1.05 | – | – | – | – | – | – | 0.9 | –
CC1[O][Pt][O]C1=O.NCC1OC2(CCCCC2)OC1CN [Example 16, (L-lactato-O,O'){cyclohexanespiro-2'-[(4'R,5'R)-4',5'-bis(aminomethyl)-1',3'-dioxolane]}platinum(II)] | 0.34 | – | 204 | 227% | toxic | – | 3.8 | – | –
CCC1C(=O)[O][Pt-2]2([NH2+]CC3OC(C(C)C)OC3C[NH2+]2)[O]C1=O [Example 44, cis-ethylmalonato[(4R,5R)-4,5-bis(aminomethyl)-2-isopropyl-1,3-dioxolane]platinum(II)] | 0.47 | – | – | 137% | 169% | 243% | – | 7.8 | –
CCC1C(=O)[O][Pt]2([NH]C[C@H]3OC4(CCCC4)O[C@@H]3C[NH]2)[O]C1=O (stereo partly drawn) [Example 45, cis-ethylmalonato[(4R,5R)-4,5-bis(aminomethyl)-1,3-dioxolane-2-spiro-1'-cyclopentane]platinum (II)] | 1.40 | – | – | 147% | 232% | 216% | 2.7 | – | –
O=C1[O][Pt-2]2([NH2+]CC3OCOC3C[NH2+]2)[O]C(=O)C12CCC2 [Example 21, cis-cyclobutane-1,1-dicarboxylato[(4S,5S)-4,5-bis(aminomethyl)-1,3-dioxolane]platinum(II)] | 2.08 | – | – | – | – | – | – | 3.1 | –
CCC1OC2C[NH2+][Pt-2]3([NH2+]CC2O1)[O]C(=O)C(CC)C(=O)[O]3 [Example 43, cis-ethylmalonato[(4R,5R)-4,5-bis(aminomethyl)-2-ethyl-1,3-dioxolane]platinum(II)] | 0.72 | – | – | 197% | 245% | toxic | 7.9 | – | –
CCCC1OC2C[NH2+][Pt-2]3([NH2+]CC2O1)[O]CC(=O)[O]3 [Example 10, (glycolato-O,O')[(4R,5R)-4,5-bis(aminomethyl)-2-propyl-1,3-dioxolane]platinum(II)] | 0.13 | 161 | 201 | toxic | toxic | – | > 30 | – | 154
